{
  "source": "paper PMC4150021",
  "about": "(Nature, 2014)",
  "system": "PANC1 cells",
  "assay": "Colony formation / growth, PANC1",
  "type": "cell-based, human",
  "settings": "data not shown",
  "data": [
    {"molecule": "Nc1ncnc2nc(-c3ccc(N4CCOCC4)nc3)cc(-c3cccc(Br)c3)c12", "note": "[ABT-702]", "values": [
      {"measurement": "growth impairment of PANC1 cells", "value": "did not observe any growth impairment"}
    ]}
  ]
}
